Experiments:
[1] = tested on: ERRγ protein in CAL62 cells; experiment: Western blot, ERRγ protein; type: cell-based
ERRγ mRNA in CAL62 cells = experiment: Quantitative RT-PCR, ERRγ mRNA; type: cell-based
Method: (§1) Total RNA was separated using Trizol (Invitrogen, Carlsbad, Calif.). Total RNA (2 ug) was reverse-transcribed into cDNA with RevertAid First Strand cDNA Synthesis Kit (Thermo Scientific, Pittsburgh, Pa.). Genes were amplified with a ViiA 7 Real-Time PCR System instrument (Applied Biosystems) using the primer of each target gene and YBR Green PCR master mix (Applied Biosystems, Foster City, Calif.), using a cDNA template. The primer sequence of each target gene is as follows: ERRγ (forward, 5′-CAG ACG CCA GTG GGA GCT A-3′; reverse, 5′-TGGCGAGTCAAGTCCGTTCT-3′), NIS (forward, 5′-TCTAACCGATGCTCACCTCTTCTG-3′; reverse, 5′-AGATGATGGCACCTCCTTGAACC-3′), and acidic ribosomal protein 36B4 (forward, 5′-CCA CGC TGC TGA ACA TGC T-3′; reverse, 5′-TCGAACACCTGCTGGATGAC-3′). Each target gene was normalized using a 36B4 gene.

CAL-62 cells = experiment: 125I uptake assay in anaplastic thyroid cancer cells; type: cell-based
[2] = tested on: NIS protein in CAL62 cells; experiment: Western blot, total and membrane-localized NIS protein; type: cell-based, human
[3] = tested on: CAL-62/effluc mouse tumor model; experiment: Bio-distribution study, 125I uptake in CAL-62/effluc tumor; type: in vivo
Method: Nude mice (Balb/c nu/nu, female, 6 weeks old) were used, and all animals were normally raised in DMRC center animal laboratory of Kyungbuk National University Hospital in Chilgok. 5×10^6 CAL-62/effluc cells were subcutaneously injected into the left femoral region of the nude mouse to form a tumor. The tumor was extracted, divided into small pieces (20 mg or more), and then intradermally injected into the nude mouse to form a tumor.
After 4 hours of administration, all organs including a parent tumor were extracted, and each organ was weighed. Thereafter, each organ was transferred to a 5 mL test tube, and radioactivity in the organ was measured using a gamma counter.

CAL62 cells = experiment: Clonogenic assay with 131I; type: cell-based; details: alone
Method: The cells were plated in a 6-well plate, and allowed to stand for 24 hours. […] The cells were washed with cold bHBSS, and allowed to stand in a normalized culture medium for a time corresponding to six doublings. Finally, the cells were fixed in a 4% paraformaldehyde (PFA) solution and stained with 0.05% crystal violet.

NIS mRNA in CAL62 cells = experiment: Quantitative RT-PCR, NIS mRNA; type: cell-based
Method: as §1

CYP1A2 = CYP1A2 (Homo sapiens (Human), UniProt P05177); experiment: Cytochrome P450 activity inhibition, CYP1A2; type: in vitro ADME; details: 10 μM, human liver microsomes
Chain of CYP1A2 (P05177 whole entry): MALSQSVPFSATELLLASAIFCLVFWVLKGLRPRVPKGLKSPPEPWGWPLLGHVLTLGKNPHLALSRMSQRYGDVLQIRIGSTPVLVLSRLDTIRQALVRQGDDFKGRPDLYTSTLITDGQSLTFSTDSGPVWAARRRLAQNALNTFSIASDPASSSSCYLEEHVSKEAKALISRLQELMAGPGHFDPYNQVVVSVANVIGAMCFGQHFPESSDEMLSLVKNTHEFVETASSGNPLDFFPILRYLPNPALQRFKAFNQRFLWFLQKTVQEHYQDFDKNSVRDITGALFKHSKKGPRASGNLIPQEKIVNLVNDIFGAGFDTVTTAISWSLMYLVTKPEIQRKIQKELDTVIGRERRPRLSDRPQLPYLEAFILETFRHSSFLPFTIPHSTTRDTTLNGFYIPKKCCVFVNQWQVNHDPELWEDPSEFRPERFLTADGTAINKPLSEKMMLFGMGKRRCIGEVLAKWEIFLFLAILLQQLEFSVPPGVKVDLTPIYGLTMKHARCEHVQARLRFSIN
Text: (§2) 1) Cytochrome P450 (CYP450) Activity Inhibition Evaluation

[4] = Weight change of mice during administration; details: all groups
[5] = type: in vitro ADME, mouse; details: 1 μM, 30 minutes, 37° C.
Method: 2) Microsomal Stability Evaluation
(§3) Four liver microsomes (Human, Dog, Rat, Mouse 0.5 mg/ml) with a 0.1 M phosphate buffer solution (pH 7.4), and the arylethene derivative of the present invention were added to a concentration of 1 μM, culturing was performed at 37° C. for 5 minutes in advance, a NADPH regeneration system solution was added thereto, and culturing was performed at 37° C. for 30 minutes. Thereafter, in order to complete the reaction, an acetonitrile solution containing an internal standard material (chlorpropamide) was added thereto, centrifugation (14,000 rpm, 4° C.) was performed for 5 minutes, and a supernatant was injected into a LC-MS/MS system to analyze the substrate drug, thereby evaluating metabolism stability to the arylethene derivative of the present invention.

CYP2C19 = CYP2C19 (Homo sapiens (Human), UniProt P33261); experiment: Cytochrome P450 activity inhibition, CYP2C19; type: in vitro ADME; details: 10 μM, human liver microsomes
Chain of CYP2C19 (P33261 whole entry): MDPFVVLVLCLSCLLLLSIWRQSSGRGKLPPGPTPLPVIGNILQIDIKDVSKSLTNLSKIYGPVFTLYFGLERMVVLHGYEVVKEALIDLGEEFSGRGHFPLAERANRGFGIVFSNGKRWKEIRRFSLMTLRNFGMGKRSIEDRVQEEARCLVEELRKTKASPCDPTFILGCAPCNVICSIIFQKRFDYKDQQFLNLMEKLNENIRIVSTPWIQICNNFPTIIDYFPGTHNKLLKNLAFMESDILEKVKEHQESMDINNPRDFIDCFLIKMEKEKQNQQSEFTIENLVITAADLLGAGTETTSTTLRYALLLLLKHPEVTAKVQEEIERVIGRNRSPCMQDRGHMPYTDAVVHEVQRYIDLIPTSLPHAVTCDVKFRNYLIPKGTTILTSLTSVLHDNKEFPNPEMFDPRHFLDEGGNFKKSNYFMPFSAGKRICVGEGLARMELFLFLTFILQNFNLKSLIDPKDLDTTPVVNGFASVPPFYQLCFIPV
Text: as §2

CYP2D6 = CYP2D6 (Homo sapiens (Human), UniProt P10635); experiment: Cytochrome P450 activity inhibition, CYP2D6; type: in vitro ADME; details: 10 μM, human liver microsomes
Chain of CYP2D6 (P10635 whole entry): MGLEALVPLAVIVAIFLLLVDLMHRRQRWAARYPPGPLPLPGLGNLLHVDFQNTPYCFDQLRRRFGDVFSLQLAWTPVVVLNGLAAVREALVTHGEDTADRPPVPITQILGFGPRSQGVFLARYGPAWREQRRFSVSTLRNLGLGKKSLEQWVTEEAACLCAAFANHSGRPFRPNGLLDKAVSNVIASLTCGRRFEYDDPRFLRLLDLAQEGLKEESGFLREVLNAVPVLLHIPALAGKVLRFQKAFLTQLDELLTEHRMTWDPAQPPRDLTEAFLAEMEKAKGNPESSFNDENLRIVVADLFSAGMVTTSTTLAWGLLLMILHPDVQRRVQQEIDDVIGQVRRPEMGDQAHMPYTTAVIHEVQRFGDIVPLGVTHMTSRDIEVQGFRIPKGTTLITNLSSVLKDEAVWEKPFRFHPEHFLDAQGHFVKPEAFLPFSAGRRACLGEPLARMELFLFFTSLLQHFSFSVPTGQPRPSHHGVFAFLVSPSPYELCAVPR
Text: as §2

[6] = type: in vitro ADME; details: PBS pH 7.4, 25° C., 5 hours
Method: 3) Parallel Artificial Membrane Permeability Assay (PAMPA) Evaluation
PAMPA is a method which has been developed for testing cell membrane permeability of a material in a test tube, and has been performed using a lipid tri-layer PVDF membrane available from Corning Gentest (NY, US), the used reagents were all purchased from Sigma (MO, US). First, a test material is diluted in PBS (pH 7.4) to a final concentration of 10 mM, 300 mL of the solution is added to the bottom well of a 96-transwell equipped with a PVDF membrane, and 200 mL of PBS is added to the upper well. Then, a plate is reacted at 25° C. for 5 hours, 20 mL of the solution in each well is transferred to a new container, and 80 mL of acetonitrile containing an internal standard material (4 mM chloropropamide) is added thereto. A concentration of the material in the solution is analyzed using LC-MS/MS (ThermoFisher Scientific, MO, US), and the transmittance of the material is calculated according to the equation reported in the reference document. • Reference document: A novel design of artificial membrane for improving the PAMPA model.

ERR alpha LBD = ERR alpha LBD (Homo sapiens (Human), UniProt P11474); details: read-out: Binding Assay, IC50 ERRα
Chain of ERR alpha LBD (P11474 193-421, species assumed): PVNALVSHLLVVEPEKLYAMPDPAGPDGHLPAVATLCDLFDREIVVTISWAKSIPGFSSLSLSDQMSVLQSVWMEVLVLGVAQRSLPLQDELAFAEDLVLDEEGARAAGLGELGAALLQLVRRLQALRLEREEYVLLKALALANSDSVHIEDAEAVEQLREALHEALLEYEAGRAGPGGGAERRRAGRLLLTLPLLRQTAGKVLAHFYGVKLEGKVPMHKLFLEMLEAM
Method: (§4) The arylethene derivative of the present invention was sequentially added to a 384 well plate from a concentration of 10 μM to a final concentration of two-fold dilution. […] After all reagents were added, a reaction was carried out with gentle shaking at 20° C. for 1 hour, and after the reaction, a binding activity was measured by a TR-FRET method.

CYP3A4 = CYP3A4 (Homo sapiens (Human), UniProt P08684); experiment: Cytochrome P450 activity inhibition, CYP3A4; type: in vitro ADME; details: 10 μM, human liver microsomes
Chain of CYP3A4 (P08684 whole entry): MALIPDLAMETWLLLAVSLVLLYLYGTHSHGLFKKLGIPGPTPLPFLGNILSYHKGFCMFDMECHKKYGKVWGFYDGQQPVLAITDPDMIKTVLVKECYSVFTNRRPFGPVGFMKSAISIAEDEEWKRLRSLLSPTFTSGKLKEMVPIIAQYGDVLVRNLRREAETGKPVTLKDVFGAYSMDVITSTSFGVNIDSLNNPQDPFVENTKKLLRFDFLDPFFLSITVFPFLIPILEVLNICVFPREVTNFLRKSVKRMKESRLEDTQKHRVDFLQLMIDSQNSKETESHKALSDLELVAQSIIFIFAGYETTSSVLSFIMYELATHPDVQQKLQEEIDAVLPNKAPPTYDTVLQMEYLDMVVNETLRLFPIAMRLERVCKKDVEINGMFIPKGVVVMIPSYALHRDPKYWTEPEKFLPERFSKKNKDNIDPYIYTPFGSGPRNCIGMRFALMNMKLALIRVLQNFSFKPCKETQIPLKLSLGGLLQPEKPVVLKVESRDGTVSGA
Method: Thereafter, in order to complete the reaction, an acetonitrile solution containing an internal standard material (Terfenadine) was added thereto, centrifugation (14,000 rpm, 4° C.) was performed for 5 minutes, and a supernatant was injected into a LC-MS/MS system to analyze the metabolites of the substrate drug, thereby evaluating drug metabolism enzyme inhibition by the arylethene derivative of the present invention.

[7] = type: in vitro ADME, human; details: 1 μM, 30 minutes, 37° C.
Method: 2) Microsomal Stability Evaluation
as §3

[8] = target: ER alpha ligand-binding domain (LBD) (Homo sapiens (Human), UniProt P03372); details: beta-estradiol 4 nM as agonist; read-out: Binding Assay, IC50 ERα
Chain of ER alpha ligand-binding domain (LBD) (P03372 whole entry, looked up, the tested form may be a part): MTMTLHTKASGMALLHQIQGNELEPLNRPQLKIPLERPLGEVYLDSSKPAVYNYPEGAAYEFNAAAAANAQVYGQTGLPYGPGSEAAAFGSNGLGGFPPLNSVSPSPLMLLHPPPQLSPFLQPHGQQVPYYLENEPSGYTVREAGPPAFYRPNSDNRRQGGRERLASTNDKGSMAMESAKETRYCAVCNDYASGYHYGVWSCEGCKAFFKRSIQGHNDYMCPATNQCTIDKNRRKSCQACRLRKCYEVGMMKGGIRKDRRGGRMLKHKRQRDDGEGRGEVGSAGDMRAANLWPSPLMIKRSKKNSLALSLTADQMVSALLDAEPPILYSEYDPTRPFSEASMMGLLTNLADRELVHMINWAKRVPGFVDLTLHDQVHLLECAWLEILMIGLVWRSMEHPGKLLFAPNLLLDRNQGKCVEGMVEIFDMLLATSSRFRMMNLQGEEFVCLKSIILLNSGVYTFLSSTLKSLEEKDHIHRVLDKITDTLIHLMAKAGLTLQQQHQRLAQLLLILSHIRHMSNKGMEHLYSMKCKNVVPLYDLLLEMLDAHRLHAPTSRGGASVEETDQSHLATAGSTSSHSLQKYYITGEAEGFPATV
Method: as §4

[9] = target: ERR gamma ligand-binding domain (LBD) (Homo sapiens (Human), UniProt P62508); experiment: ERRγ binding assay (inverse agonist assay), TR-FRET
Chain of ERR gamma ligand-binding domain (LBD) (P62508 233-457): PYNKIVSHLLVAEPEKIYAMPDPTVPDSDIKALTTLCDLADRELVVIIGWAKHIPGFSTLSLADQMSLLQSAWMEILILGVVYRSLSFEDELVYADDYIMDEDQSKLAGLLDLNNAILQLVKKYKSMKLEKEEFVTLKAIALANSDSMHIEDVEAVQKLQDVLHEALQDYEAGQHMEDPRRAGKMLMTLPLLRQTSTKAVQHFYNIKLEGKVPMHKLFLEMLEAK
Method: 1) ERRγ Binding Assay (Inverse Agonist Assay)
as §4

[10] = type: in vitro ADME, rat; details: 1 μM, 30 minutes, 37° C.
Method: 2) Microsomal Stability Evaluation
as §3

CYP2C9 = CYP2C9 (Homo sapiens (Human), UniProt P11712); experiment: Cytochrome P450 activity inhibition, CYP2C9; type: in vitro ADME; details: 10 μM, human liver microsomes
Chain of CYP2C9 (P11712 whole entry): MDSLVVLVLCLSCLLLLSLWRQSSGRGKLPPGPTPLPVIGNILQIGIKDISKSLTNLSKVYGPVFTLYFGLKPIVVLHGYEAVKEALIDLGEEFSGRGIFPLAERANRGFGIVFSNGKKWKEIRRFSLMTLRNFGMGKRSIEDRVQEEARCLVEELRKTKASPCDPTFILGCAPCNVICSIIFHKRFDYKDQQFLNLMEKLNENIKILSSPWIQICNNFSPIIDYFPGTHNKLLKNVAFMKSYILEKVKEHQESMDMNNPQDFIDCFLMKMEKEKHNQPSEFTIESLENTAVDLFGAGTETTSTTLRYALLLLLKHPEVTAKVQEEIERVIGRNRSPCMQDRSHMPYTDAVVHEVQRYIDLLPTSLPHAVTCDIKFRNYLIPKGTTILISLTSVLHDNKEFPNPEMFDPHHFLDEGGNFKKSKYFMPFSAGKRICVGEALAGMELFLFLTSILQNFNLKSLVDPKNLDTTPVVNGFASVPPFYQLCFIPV
Text: as §2

[11] = type: in vitro ADME, dog; details: 1 μM, 30 minutes, 37° C.
Method: 2) Microsomal Stability Evaluation
as §3

ERRβ = ERRβ (Homo sapiens, UniProt O95718); experiment: ERRβ binding assay (selectivity test), TR-FRET
Method: as §4

ERRγ = type: cell-based
Method: AD293 was cultured in a 24-well plate for 24 hours, using a DMEM High glucose culture medium (Hyclone, USA) to which 0.5% FBS was added at a concentration of 9×10^4/well. The culture medium was replaced with a DMEM High glucose culture medium to which 10% FBS was added, treatment was performed with a mixture of a TransIT-LT1 transfection reagent (Minis, USA) and pCMX-Gal4-ERRγ, pFR-luciferase reporter plasmid, pCMV-β-gal, and culturing was performed for 24 hours. Thereafter, a luciferase activity assay and a β-gal assay were performed, respectively, with a lysate obtained after treatment with the arylethene derivative of the present invention for 24 hours. All results were derived from three or more independent repetitive experiments.

Row | Compound | CYP inhibition (% of control) 1A2 (CYP1A2) | MS (Microsomal Stability) (%) mouse [5] [%] | CYP inhibition (% of control) 2C19 (CYP2C19) | CYP inhibition (% of control) 2D6 (CYP2D6) | IC50 (ERR alpha LBD) [nM] | CYP inhibition (% of control) 3A4 (CYP3A4) | MS (Microsomal Stability) (%) human [7] [%] | IC50 [8] [nM] | MS (Microsomal Stability) (%) rat [10] [%] | CYP inhibition (% of control) 2C9 (CYP2C9) | MS (Microsomal Stability) (%) dog [11] [%] | other results
1 | CC(C)N1CCN(c2ccc(C(=C(CCCO)c3ccccc3)c3ccc(O)cc3)cc2)CC1 [Compound 18a] | 88 % of control |  |  |  |  |  |  |  |  |  |  | ERRγ protein expression, decrease vs vehicle treated group [1]: about 2.8 times; ERRγ mRNA expression, decrease vs vehicle treated group (ERRγ mRNA in CAL62 cells): about 16 times; concentration of maximum increase of iodine uptake (CAL-62 cells; CAL62 cells): 12 µM; radioactive iodine uptake in CAL62 cells (CAL-62 cells; for each concentration and each time): significant increase; increase in membrane fully glycosylated NIS protein [2]: 8.1 times; increase in membrane partially glycosylated NIS protein [2]: 6.4 times; total NIS protein expression, change vs vehicle treated group ([2]; text says significantly increased, then decreased): about 1.9 times; radioactive uptake in CAL62 tumor, increase vs vehicle group ([3]; 100 mpk orally daily for 6 days): 4.4 times; radioactive uptake in CAL62 tumor, increase vs vehicle group ([3]; 200 mpk orally daily for 6 days): 16.2 times; cytotoxic effect in clone formation assay (CAL62 cells): minimal cytotoxic effect; NIS mRNA expression, increase vs vehicle-treated group (NIS mRNA in CAL62 cells): about 2 times; weight change in the mice [4]: abrupt weight change in the mice was not shown
2 | OCCC/C(=C(\c1ccc(O)cc1)c1ccc(C2CCN(C3CCCCC3)CC2)cc1)c1ccccc1 [Compound 22p] | 88.1 % of control | 40.4 | 61.5 % of control | 79.6 % of control | 9700 | 90.6 % of control | 72.3 | 2120 | 75.3 | 81.8 % of control | 77.7 | Permeability Pampa [6]: 0.2 10^−6 cm/s; IC50 [9]: 99 nM
3 | OCCC/C(=C(\c1ccc(O)cc1)c1ccc(C2CCNCC2)cc1)c1ccccc1 [Compound 20j] | 93.6 % of control | 25.3 | 62 % of control | 89.3 % of control | > 10000 | 66.2 % of control | 76.8 | 992 | 84.5 | 77.1 % of control | 68.3 | IC50 (ERRβ): 4930 nM; Functional Assay at 10 μM (% of control), Cpds (ERRγ; 10 μM, AD293, 24 hours): 1.41 % of control; Functional Assay, Cpds/Ref 5182 (ERRγ; activity relative to reference compound GSK5182): 1.38
